pIC50: −log10 of the molar value. Activity calls are given as the source filed them. The rule behind the calls is not given here.
What was measured:
[1] = test system: U-251; test: Antimigratory activity in human U-251 cells assessed as inhibition of cell migration by measuring wound closure at 0.25 to 1.0 uM and measured after 24 hrs by transwell migration assay; format: functional, cell-based; settings: dose 0.25-1 µM, DDE = dose-dependent effect
[2] = test system: U-251; test: Induction of cell cycle arrest in human U-251 cells assessed as decrease in accumulation at S phase at 0.75 to 3 uM measured after 72 hrs by flow cytometry; format: functional, cell-based; settings: dose 0.75-3 µM, DDE = dose-dependent effect
[3] = test system: U-87MG ATCC; test: Induction of apoptosis in human U-87 MG cells assessed as reduction in cell count at 0.075 to 1.20 uM measured after 72 hrs by Giemsa staining based microscopic analysis; format: functional; settings: dose 0.075-1.2 µM
[4] = test system: U-87MG ATCC; test: Induction of cell cycle arrest in human U-87 MG cells assessed as decrease in accumulation at S phase at 0.075 to 1.20 uM measured after 72 hrs by flow cytometry; format: functional, cell-based; settings: dose 0.075-1.2 µM, DDE = dose-dependent effect
[5] = test system: U-251; test: Downregulation of E2F gene expression in human U-251 cells at 0.075 to 1.2 uM measured after 72 hrs by western blot analysis; format: functional, cell-based; settings: dose 0.075-1.2 µM
[6] = Induction of apoptosis in human U-87 MG cells assessed as late apoptotic cells at 0.075 uM incubated for 72 hrs by Annexin V-FITC/PI staining based flow cytometry method (reference value: 0.42 %); format: functional, U-87MG ATCC
[7] = Induction of apoptosis in human U-87 MG cells assessed as viable cells at 0.30 uM incubated for 72 hrs by Annexin V-FITC/PI staining based flow cytometry method (reference value: 96.84 %); format: functional, U-87MG ATCC; settings: read-out: Activity
[8] = AUC (0 to t) in Sprague-Dawley rat brain at 100 mg/kg, ip and measured upto 240 mins by LC-MS analysis; format: ADME, organism-based; set-up: dose 100 mg/kg, time < 240 min, route ip
[9] = Induction of apoptosis in human U-87 MG cells assessed as viable cells at 1.20 uM incubated for 72 hrs by Annexin V-FITC/PI staining based flow cytometry method (reference value: 96.84 %); format: functional, U-87MG ATCC; settings: read-out: Activity
[10] = test system: U-251; test: Antiproliferative activity against human U-251 cells assessed as inhibition of cell proliferation upto 72 hrs by CCK8 assay; format: functional, cell-based; settings: TDE = time-dependent effect
[11] = Antiproliferative activity against human U-87 MG cells assessed as inhibition of cell proliferation measured after 72 hrs by CCK8 assay; format: functional, cell-based, U-87MG ATCC
[12] = test system: U-87MG ATCC; test: Downregulation of CDK4 gene expression in human U-87 MG cells at 0.075 to 1.2 uM measured after 72 hrs by western blot analysis; format: functional, cell-based; settings: dose 0.075-1.2 µM
[13] = test system: U-251; test: Antiproliferative activity against human U-251 cells assessed as release of LDH in supernatant and measured after 72 hrs by microplate reader assay; format: functional, cell-based; settings: DDE = dose-dependent effect
[14] = Induction of apoptosis in human U-87 MG cells assessed as necrotic cells at 1.20 uM incubated for 72 hrs by Annexin V-FITC/PI staining based flow cytometry method (reference value: 0.21 %); format: functional, U-87MG ATCC; settings: dose 1.2 µM
[15] = test system: U-251; test: Antiinvasive activity against human U-251 cells assessed as inhibition of cell invasion at 0.25 to 1.0 uM measured after 24 hrs by transwell invasion assay; format: functional, cell-based; settings: dose 0.25-1 µM, DDE = dose-dependent effect
[16] = test system: U-251; test: Downregulation of CDK6 gene expression in human U-251 cells at 0.075 to 1.2 uM measured after 72 hrs by western blot analysis; format: functional, cell-based; settings: dose 0.075-1.2 µM
[17] = Induction of apoptosis in human U-87 MG cells assessed as early apoptotic cells at 0.075 uM incubated for 72 hrs by Annexin V-FITC/PI staining based flow cytometry method (reference value: 2.53 %); format: functional, U-87MG ATCC
[18] = test system: U-251; test: Induction of cell cycle arrest in human U-251 cells assessed as decrease in accumulation at G2/M phase at 0.75 to 3 uM measured after 72 hrs by flow cytometry; format: functional, cell-based; settings: dose 0.75-3 µM, DDE = dose-dependent effect
[19] = test system: U-87MG ATCC; test: Induction of cell cycle arrest in human U-87 MG cells assessed as decrease in accumulation at G2/M phase at 0.075 to 1.20 uM measured after 72 hrs by flow cytometry; format: functional, cell-based; settings: dose 0.075-1.2 µM, DDE = dose-dependent effect
[20] = Induction of apoptosis in human U-87 MG cells assessed as early apoptotic cells at 0.30 uM incubated for 72 hrs by Annexin V-FITC/PI staining based flow cytometry method (reference value: 2.53 %); format: functional, U-87MG ATCC; settings: dose 0.3 µM
[21] = Half life in Sprague-Dawley rat plasma at 100 mg/kg, ip and measured upto 240 mins by LC-MS analysis; format: ADME, organism-based
[22] = test system: U-251; test: Induction of apoptosis in human U-251 cells assessed as late apoptotic cells at 1.50 uM incubated for 72 hrs by Annexin V-FITC/PI staining based flow cytometry method (Rvb =1.31 %); format: functional; settings: dose 1.5 µM
[23] = test system: U-87MG ATCC; test: Induction of cell cycle arrest in human U-87 MG cells assessed as accumulation at G0/G1 phase at 0.075 to 1.2 uM and measured after 72 hrs by flow cytometry; format: functional, cell-based; settings: dose 0.075-1.2 µM, DDE = dose-dependent effect
[24] = AUC (0 to infinity) in Sprague-Dawley rat brain at 100 mg/kg, ip and measured upto 240 mins by LC-MS analysis; format: ADME, organism-based; set-up: dose 100 mg/kg, time < 240 min, route ip
[25] = test system: U-251; test: Induction of apoptosis in human U-251 cells assessed as viable cells at 0.375 uM incubated for 72 hrs by Annexin V-FITC/PI staining based flow cytometry method (reference value: 96.22 %); format: functional; settings: read-out: Activity
[26] = test system: U-87MG ATCC; test: Antitumor activity against human U-87 MG cells xenografted in BALB/c mouse assessed assessed as inhibition of tumor cell proliferation at 10 mg/kg,ip bid for 1 month by Ki67 staining based immunohistochemical analysis; format: functional, organism-based; settings: time 1.0 months
[27] = test system: U-251; test: Antiproliferative activity against human U-251 cells assessed as reduction in colony number at 0.25 to 1 uM for 2 to 3 weeks by crystal violet staining based plate clone formation assay; format: functional, cell-based; settings: dose 0.25-1 µM, time 2-3 weeks, DDE = dose-dependent effect
[28] = test system: U-87MG ATCC; test: Antiproliferative activity against human U-87 MG cells assessed as reduction in cell proliferation at 0.125 to 0.5 uM and measured after 24 hrs by EdU incorporation based assay; format: functional; settings: dose 0.125-0.5 µM, DDE = dose-dependent effect
[29] = test system: U-87MG ATCC; test: Antimigratory activity in human U-87 MG cells assessed as inhibition of cell migration by measuring wound closure at 0.125 to 0.50 uM and measured after 24 hrs by wound healing assay; format: functional, cell-based; settings: dose 0.125-0.5 µM, DDE = dose-dependent effect
[30] = test system: U-251; test: Downregulation of cyclin D1 gene expression in human U-251 cells at 0.075 to 1.2 uM measured after 72 hrs by western blot analysis; format: functional, cell-based; settings: dose 0.075-1.2 µM
[31] = Half life in Sprague-Dawley rat brain at 100 mg/kg, ip and measured upto 240 mins by LC-MS analysis; format: ADME, organism-based
[32] = test system: U-251; test: Induction of apoptosis in human U-251 cells assessed as formation of spindle shaped cells at 0.375 to 6 uM measured after 72 hrs by Giemsa staining based microscopic analysis; format: functional, cell-based; settings: dose 0.375-6 µM
[33] = test system: U-251; test: Downregulation of CDK4 gene expression in human U-251 cells at 0.075 to 1.2 uM measured after 72 hrs by western blot analysis; format: functional, cell-based; settings: dose 0.075-1.2 µM
[34] = test system: U-87MG ATCC; test: Antitumor activity against human U-87 MG cells xenografted in BALB/c mouse assessed as decrease in tumor volume at 10 mg/kg,ip bid for 1 month; format: functional, organism-based; settings: time 1.0 months
[35] = test system: U-251; test: Induction of apoptosis in human U-251 cells assessed as reduction in cell count at 0.375 to 6 uM measured after 72 hrs by Giemsa staining based microscopic analysis; format: functional; settings: dose 0.375-6 µM

COCCN1CCN(c2ccc(F)cc2C(=O)Nc2ccc(CNC(=O)OCc3cccnc3)cc2)CC1
Activity [1]: Dde
Activity [2]: Dde
Activity [3]: Active
Activity [4]: Dde
Activity [5]: Active
Activity [6]: 0.41%
viability at 0.3 µM [7]: 94.2%
AUC(0-t) at 4 h [8]: 97000 ng·h/mL
viability at 1.2 µM [9]: 70.3%
Activity [10]: Tde
pIC50 [11]: 6.54
Activity [12]: Active
Activity [13]: Dde
Activity [14]: 1.76%
Activity [15]: Dde
Activity [16]: Active
Activity [17]: 2.76%
Activity [18]: Dde
Activity [19]: Dde
Activity [20]: 4.51%
half-life [21]: 52.8 min
Activity [22]: 2.47%
Activity [23]: Dde
AUC(0-inf) [24]: 102000 ng·h/mL
viability at 0.375 µM [25]: 95.9%
Activity [26]: Active
Activity [27]: Dde
Activity [28]: Dde
Activity [29]: Dde
Activity [30]: Active
half-life [31]: 43.8 min
Activity [32]: Active
Activity [33]: Active
Activity [34]: Active
Activity [35]: Active

Source: ChEMBL document CHEMBL5131385, “Novel piperazine based benzamide derivatives as potential anti-glioblastoma agents inhibiting cell proliferation and cell cycle progression” (Eur J Med Chem, 2022)
